This is an account of results in paper PMC6158189, “A pharmacological probe identifies cystathionine β-synthase as a new negative regulator for ferroptosis” (Cell Death & Disease, 2018).

One test has as its target T1, hCBS Q222A (Homo sapiens, UniProt P35520, Q222A).
T1 construct: hCBS-413 (a C-terminal truncated hCBS 1–413); GST (N); made in house; host or cells: E. coli BL21
T1 sequence (P35520 1-413 Q222A): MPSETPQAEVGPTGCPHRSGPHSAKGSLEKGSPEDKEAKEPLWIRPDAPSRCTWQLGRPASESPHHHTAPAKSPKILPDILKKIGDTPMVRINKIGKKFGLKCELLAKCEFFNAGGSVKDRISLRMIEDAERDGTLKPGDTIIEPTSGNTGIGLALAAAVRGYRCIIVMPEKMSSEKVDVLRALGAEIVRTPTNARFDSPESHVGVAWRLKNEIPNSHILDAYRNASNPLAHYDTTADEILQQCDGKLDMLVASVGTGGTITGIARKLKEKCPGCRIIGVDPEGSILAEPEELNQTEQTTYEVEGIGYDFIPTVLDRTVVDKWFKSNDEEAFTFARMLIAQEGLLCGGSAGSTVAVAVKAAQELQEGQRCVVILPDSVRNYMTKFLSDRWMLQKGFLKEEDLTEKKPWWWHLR
Briefly: purified hCBS mutant enzyme assay. It is filed as biochemical. The conditions noted are these: 1 mM HA, 60 mM Cys, 1.2 μM CBS-413 Q222A. Here is the method: The IC50 values of CH004 for hCBS-413, hCBS-413 mutants, hCBS-FL, hCSE or hDDC were determined according to the standard assay conditions otherwise indicated.
Figure S6. […] HEK293T cells stably expressing CBS Q222A mutant (293T-CBS Q222A) were treated with 0 (DMSO control), 5 or 10 μM CH004 for 8 h before staining with the AzMC to detect H2S. The overlaid images of fluorescent and bright-field images are shown in the left panel, and the corresponding fluorescent (blue, H2S) and bright-field images are shown in the middle and right panels, respectively. Bars: 50 μm. [picture] Figure S7. The CH004-insensitive CBS Q222A mutant can be inhibited by HA. (A) HEK293T cells stably expressing CBS Q222A mutant (293T-CBS Q222A) were treated with 0 (DMSO, control), 5 or 10 μM of CH004, 1 mM or 2 mM of HA for 8 h before staining with the AzMC to detect H2S. The overlaid images of fluorescent and bright-field images are shown in the upper panel, and the corresponding fluorescent (blue, H2S) and bright-field images are shown in the middle and lower panels, respectively. Bars: 50 μm. (B) Quantification of the mean fluorescent density of H2S (blue). The intensity of blue light of the fluorescent images was quantified by ImageJ software, quantified and deduced the background signal in HEK293T-EV cells (Supplementary Figure S3B), normalized by the corresponding cell area and expressed as percentages of control (DMSO group, 100%). Means ± SDs (n=3). One-way ANOVA with Bonferroni post-tests was used for the analysis. *, p< 0.05; **, p< 0.01; n.s. no significance. The images are one representative from three independent experiments. (C) The inhibitory effect of 1 mM HA on purified CBS Q222A mutant. The assay was performed using 60 mM Cys and 1.2 μM CBS-413 Q222A mutant. The data were expressed as percentages of control (DMSO, 100%). Means ± SDs (n=4). [picture]
Table S2. Inhibitory effects of CH004 on hCBS WT and mutants.

Test [1] has as its target T2, CBS-FL mutant (293T-CBS Q222A) (Homo sapiens, UniProt P35520, Q222A).
T2 construct: human CBS or hCSE full-length (CBS-FL or CSE) was subcloned into pGEX-KG, pcDNA3 or pCDH vector; expressed in transfected cells
Briefly: H2S in HEK293T cells stably expressing CBS Q222A (AzMC probe). The note with it: 1 mM or 2 mM HA, 8 h. The test is classed as cell-based. Here is the method:
HEK293T cells were transiently transfected with empty vector (EV, i and ii), hCBS-FL (iii and iv) or hCSE (v and vi) plasmids, followed by incubation with DMSO (i–iii and v) or 10 μM CH004 (iv and vi) for 8 h before staining with 50 μM AzMC, a H2S-specific probe (“Materials and Methods” section). For larger fluorescent and bright-field images, please see Supplementary Figure 4. The expression levels of hCBS or hCSE in HEK293T cells after transient transfections were determined by western blotting using an anti-CBS antibody (3E1, 1:2000; Abnova) or anti-CSE antibody (1:500, GeneTex). The densities of protein bands for hCBS or hCSE in the blots were quantified with the ImageJ software (National Institutes of Health, Bethesda, MD, USA) and expressed as ratios of respective control (EV group). […] The fluorescent images of the H2S (blue) were accordingly quantified (“Materials and Methods” section) with ImageJ. […] A representative fluorescence image from three independent experiments is shown. […]
H2S levels in living cells were detected using a H2S-specific fluorescent probe according to a protocol described previously[31],[55]. […] After incubation with 50 μM AzMC at 37 °C for 30 min, the cells were washed 4 times with PBS, and the fluorescent images were recorded with excitation by 405 nm laser by using a A1Si (Nikon) confocal microscope. […]

In the case of `NO` [HA, hydroxylamine, reference compound], the “inhibitory effect on activity of purified CBS Q222A mutant” value against hCBS Q222A is on record as “could be suppressed”. In test [1], the “effect on H2S” value is given as “substantially decreased”.
